Assay results as given in PubChem BioAssay AID2065 (Southern Research Specialized Biocontainment Screening …, 2009).
Activity calls are given as the source filed them. How the calls were made is not given here.

test system: West Nile virus-infected cells, virus titer reduction; test: WNV titer decrease in infected cells – cell-based, synthesized compounds (AID 2065); conditions: at 20 µM (top of the series)

Row | SMILES | log titer change, negative = inhibition
1 | COc1ccc(-c2csc(N(CCCN(C)C)C(=O)c3ccccc3Cl)n2)cc1 | -3.82
2 | O=C(CSc1nc2ccccc2c(=O)n1-c1ccc(F)cc1F)Nc1ccc(N2CCOCC2)cc1 | -4.15
3 | CN(C)CCCN1c2ccc([N+](=O)[O-])cc2CCc2cc([N+](=O)[O-])ccc21 | -3.82
4 | OC1c2cc(Br)ccc2N=C2CCCN21 (stereo not given) | -5.53
5 | CCOC(=O)C1(Cc2ccccc2C(F)(F)F)CCN(C2CCN(C(C)C)CC2)CC1 | 1.18 (inactive)
6 | CN(C)CCCNC(=S)N1CCN(c2nc(-c3ccccc3)cs2)CC1 | -2.32
7 | O=C(CSc1nc2ccccc2c(=O)n1-c1ccc(F)cc1)Nc1ccc2c(c1)CCC2 | -4.18
8 | COc1ccc(-c2csc(N(CCCN(C)C)C(=O)c3ccccc3C)n2)cc1 | -0.48 (inactive)
9 | O=C(CSc1nc2ccccc2c(=O)n1-c1ccc(F)cc1F)Nc1ccc2c(c1)CCC2 | -3.82
10 | CCN(CC)CCCNC(=S)N1CCN(c2nc(-c3ccccc3)cs2)CC1 | -5.48
